Laboratory results reported in PMC7277541, “Antimicrobial and Antifungal Activities of Terpene-Derived Palladium Complexes” (Antibiotics, 2020).
In brackets after ≈: the same amount, converted by molar mass.

Assays:
[1] = tested on: C. neoformans var. grubii H99 ATCC 208821; test: Antifungal MIC assay, C. neoformans; assay type: cell-based, Cryptococcus neoformans; settings: YNB, 35 °C, 36 h, resazurin, growth inhibited ≥ 80%, range tested 0.25 to 32 μg/mL, n = 2
Description: Screening against bacteria and yeasts for antimicrobial activity and toxicity against mammalian cells was performed in duplicate (n = 2). […] Becton Dickinson 242720) agar at 30 °C. A yeast suspension of 1 × 10^6 to 5 × 10^6 CFU/mL (as determined by OD530) was prepared from five colonies form the agar plates, and subsequently diluted with Yeast Nitrogen Base media (YNB; Becton Dickinson 233520), and added to each well of the compound containing plates (384-well plates, NBS; […] Plates were covered and incubated at 35 °C for 36 h without shaking. […] Fluconazole (Sigma Aldrich, F8929) was used as a positive inhibitor control on each plate for both strains.

[2] = tested on: human embryonic kidney cells (HEK293, ATCC CRL-1573); test: Cytotoxicity assay (resazurin); assay type: cell-based; settings: HEK293, 20 h incubation
Description: (§1) Screening against bacteria and yeasts for antimicrobial activity and toxicity against mammalian cells was performed in duplicate (n = 2). […] HEK293 cells were counted manually in a Neubauer hemocytometer and added to compound-containing plates (384-well plates, tissue culture treated (TC); Corning CLS3712) giving a final density of 5000 cells/well in a total volume of 50 μL, using Dulbecco's Modified Eagle Medium (DMEM; Life Technologies 11995-073) with 10% Fetal Bovine Serum (FBS; GE SH30084.03). […] Sigma R7017) and after further incubation for 3 h at 37 °C in 5% CO2. Media only was used as negative control and cells without inhibitors as positive growth control. CC50 (concentration at 50% cytotoxicity) values were calculated by curve fitting the inhibition values vs. log(concentration) using a sigmoidal dose-response function, with variable fitting values for bottom, top and slope. Tamoxifen (Sigma Aldrich, Australia T5648) was used as positive inhibitor control on each plate. Selectivity indices (SI) were calculated by dividing the CC50 value (μg/mL) by the MIC value (μg/mL) for a given bacterial or fungal strain.

[3] = tested on: S. aureus (MRSA) ATCC 43300; test: Antibacterial MIC assay, S. aureus (MRSA); assay type: cell-based, Staphylococcus aureus; settings: CAMHB, 18 h, growth inhibited by ≥ 80%, range tested 0.25 to 32 μg/mL, n = 2
Description: (§2) Dry compounds were dissolved in dimethyl sulfoxide (DMSO), and serially diluted 2-fold to produce an 8-point dose response with DMSO/water and then added into microtiter plates with a final DMSO concentration of 0.5%, providing a concentration range of 0.25 to 32 μg/mL. Screening against bacteria and yeasts for antimicrobial activity and toxicity against mammalian cells was performed in duplicate (n = 2).
For the bacterial assays, each bacterial strain was cultured in Cation-Adjusted Mueller Hinton Broth (CAMHB; Bacto Laboratories 212322) at 37 °C overnight. Bacterial strains tested were methicillin resistant S. aureus (methicillin-resistant Staphylococcus aureus - MRSA) ATCC 43300, E. coli ATCC 25922, K. pneumoniae K6/ESBL ATCC 700603, P. aeruginosa ATCC 27853, A. baumannii ATCC 19606. A sample of each culture was then diluted 40-fold in fresh CAMHB and incubated at 37 °C for 1.5–3 h. The resultant mid-log phase cultures were diluted with CAMHB (CFU/mL measured by OD600), then added to each well of the compound-containing plates (384-well non-binding surface (NBS) plates; Corning CLS3640), giving a final cell density of 5 × 10^5 CFU/mL and a total volume of 50 μL. Plates were covered and incubated at 37 °C for 18 h without shaking. Inhibition of bacterial growth was determined by measuring absorbance at 600 nm (OD600), using media only as negative control and bacteria without inhibitors as positive control. MIC values were determined as the lowest concentration at which the growth was inhibited by ≥ 80% (equivalent to no visible growth by eye). Colistin sulfate (Sigma Aldrich, Castle Hill, Australia C4461) and vancomycin HCl (Sigma Aldrich, 861987) were used as positive inhibitor controls on each plate for Gram-negative and Gram-positive bacteria, respectively.

C. albicans ATCC 90028 = test: Antifungal MIC assay, C. albicans; assay type: cell-based, Candida albicans; settings: YNB, 35 °C, 36 h, growth inhibited ≥ 80%; range tested 0.25 to 32 μg/mL; n = 2
Description: as §2, with “All screened compounds were > 95% purity as determined by NMR. Dry” for “Dry”
For the fungal assays, yeast strains C. neoformans var. grubii H99 ATCC 208821 and C. albicans ATCC 90028 were cultured for 3 days on Yeast Extract-Peptone Dextrose (YPD; Becton Dickinson 242720) agar at 30 °C. A yeast suspension of 1 × 10^6 to 5 × 10^6 CFU/mL (as determined by OD530) was prepared from five colonies form the agar plates, and subsequently diluted with Yeast Nitrogen Base media (YNB; Becton Dickinson 233520), and added to each well of the compound containing plates (384-well plates, NBS; Corning CLS3640) giving a final cell density of 2.5 × 10^3 CFU/mL and a total volume of 50 μL. Plates were covered and incubated at 35 °C for 36 h without shaking. Growth inhibition of C. albicans was determined measuring absorbance at 630 nm (OD630), while the growth inhibition of C. neoformans was determined measuring the difference in absorbance between 600 and 570 nm (OD600-570), after the addition of resazurin (0.001% final concentration; Sigma R7017) and incubation at 35 °C for 2 h, using media only as negative control and fungi without inhibitors as positive control. MIC values were determined as the lowest concentration at which the growth was inhibited at ≥ 80% (equivalent to no visible growth by eye). Fluconazole (Sigma Aldrich, F8929) was used as a positive inhibitor control on each plate for both strains.

[4] = tested on: human red blood cells (HRBC); test: Haemolysis assay; assay type: cell-based; settings: 1 h at 37 °C
Description: as §2, with “All screened compounds were > 95% purity as determined by NMR. Dry” for “Dry”
Hemolytic activity was assessed against human red blood cells (HRBC), with data presented as HC10, corresponding to the concentration of the compound causing 10% hemolysis. Human whole blood (Australian Red Cross) was washed three times with 3 volumes of 0.9% NaCl and resuspended in a concentration of 0.5 × 10^8 cells/mL, determined by manual cell count in a Neubauer hemocytometer. Washed cells were added to compound containing plates (384-well polypropylene plates (PP); Corning 3657) for a final volume of 50 μL. The plate was shaken with incubation for 1 h at 37 °C. After incubation, the plates were centrifuged at 1000× g for 10 min to pellet cells and debris. Supernatant (25 μL) was then transferred to reading plates (384-well, polystyrene plated (PS), Corning CLS3680), with hemolysis determined by measuring the supernatant absorbance at […] (OD405), using cells without inhibitors as negative control and cells with 1% Triton X-100 (Sigma T8787) as positive control. HC10 and HC50 (concentration at 10% and 50% hemolysis, respectively) were calculated by curve fitting the inhibition values vs. log(concentration) using a sigmoidal dose-response function with variable fitting values for top, bottom and slope. Melittin (Sigma M2272) was used as positive hemolytic control on each plate. Human blood was sourced from the Australian Red Cross Blood Service. Selectivity indices (SI) were calculated by dividing the HC10 value (μg/mL) by the MIC value (μg/mL) for a given bacterial or fungal strain.

[5] = Cytotoxicity assay (resazurin); assay type: cell-based, human; settings: human, HEK293 cells (ATCC CRL-1573), HEK293, 20 h incubation, read-out: CC50 (concentration of 50% cytotoxicity)
Description: as §1

Row | Compound | Minimum inhibitory concentration (MIC) C. neoformans ATCC 208821 [1] [µg/mL] | CC50 (concentration of 50% cytotoxicity) [2] [µg/mL] | Minimum inhibitory concentration (MIC) S. aureus ATCC 43300 [3] [µg/mL] | Minimum inhibitory concentration (MIC) C. albicans ATCC 90028 (C. albicans ATCC 90028) [µg/mL] | HC10 (concentration of 10% haemolysis) [4] [µg/mL] | CC50 at 20 h [5] [µg/mL]
1 | C[C@H](N=C1C[C@H]2C[C@H](C2(C)C)[C@@]1(C)O)c1cccc[c]1[Pd][Cl].C[C@H](N=C1C[C@H]2C[C@H](C2(C)C)[C@@]1(C)O)c1cccc[c]1[Pd][Cl] [Compound 1] | 0.5 | 11.9 | 4 | 1 | 3.9 | 
2 | C[C@H](N[C@@H]1C[C@H]2C[C@H](C2(C)C)[C@@]1(C)O)c1cccc[c]1[Pd]([Cl])[P](c1ccccc1)(c1ccccc1)c1ccccc1 [Compound 5, (+)-trans-Chloro{(1R,2R,3R,5R)-3-((S)-1′-phenylethylamino)-2,6,6-trimethylbicyclo[3.1.1]heptane-2-ol-C,N}(triphenylphosphine)palladium(II)] | 1 | 2.9 | 16 | 2 | 5.6 | 
3 | CC[C@H](C)[C@H](NC(=O)CN)C(=O)NCC(=O)N[C@@H](C)C(=O)N[C@H](C(=O)N[C@@H](CC(C)C)C(=O)N[C@@H](CCCCN)C(=O)N[C@H](C(=O)N[C@@H](CC(C)C)C(=O)N[C@H](C(=O)N[C@H](C(=O)NCC(=O)N[C@@H](CC(C)C)C(=O)N1CCC[C@H]1C(=O)N[C@@H](C)C(=O)N[C@@H](CC(C)C)C(=O)N[C@H](C(=O)N[C@@H](CO)C(=O)N[C@@H](Cc1c[nH]c2ccccc12)C(=O)N[C@H](C(=O)N[C@@H](CCCCN)C(=O)N[C@@H](CCCNC(=N)N)C(=O)N[C@@H](CCCCN)C(=O)N[C@@H](CCCNC(=N)N)C(=O)N[C@@H](CCC(N)=O)C(=O)N[C@@H](CCC(N)=O)C(N)=O)[C@@H](C)CC)[C@@H](C)CC)[C@@H](C)O)[C@@H](C)O)C(C)C)C(C)C [melittin, Melittin, reference compound] |  |  |  |  | 2.7 | 
4 | CC/C(=C(\c1ccccc1)c1ccc(OCCN(C)C)cc1)c1ccccc1 [tamoxifen, Tamoxifen, reference compound] |  |  |  |  |  | 9 (≈ 24.2 µM)
